In US20130035229A1 (priority 2010, published 2013):
Read-outs that look alike come from different tables or passages of the source.

Legend:
Botrytis cinerea = assay: Microtest: activity against the grey mold pathogen Botrytis cinerea (micro titer plate, absorption 405 nm, 7 days); assay type: cell-based; details: single compound, 7 days after inoculation
Pyricularia oryzae = assay type: cell-based; details: single compound, 7 days after inoculation

| SMILES | Observed efficacy (Botrytis cinerea; 1 ppm) [%] | Observed efficacy (Pyricularia oryzae; 4 ppm) [%] | Observed efficacy (Botrytis cinerea; 4 ppm) [%] | other results |
| --- | --- | --- | --- | --- |
| Fc1cccc([C@@]2(Cn3ncnc3S)O[C@@H]2c2ccccc2Cl)c1 (relative stereo) [II-1, 2-[rel-(2S;3R)-3-(2-chlorophenyl)-2-(3-fluorophenyl)-oxiranylmethyl]-2H-[1,2,4]triazole-3-thiol] | – | – | – | Observed efficacy (Botrytis cinerea; 16 ppm): 8%; Observed efficacy (Botrytis cinerea; 63 ppm): 24%; Observed efficacy (Pyricularia oryzae; 63 ppm): 27% |
| Cn1cc(C(=O)Nc2ccccc2-c2cc(F)c(F)c(F)c2)c(C(F)F)n1 [Fluxapyroxad, reference compound] | – | – | – | Observed efficacy (Botrytis cinerea; 0.063 ppm): 29% |
| Fc1ccc(F)c2c(NCCc3ccc(Oc4cc(C(F)(F)F)ccn4)cc3)ncnc12 [I-5, (5,8-Difluoro-quinazolin-4-yl)-{2-[4-(4-trifluoromethyl-pyridin-2-yloxy)-phenyl]-ethyl}-amine] | 14 | 58 | – | – |
| COc1cc(CCNc2ncnc3c(F)ccc(F)c23)ccc1Oc1ncc(C(F)(F)F)cc1Cl [I-17, (5,8-Difluoro-quinazolin-4-yl)-{2-[4-(3-chloro-5-trifluoromethyl-pyridin-2-yloxy)-3-methoxy-phenyl]-ethyl}-amine] | – | 56 | 5 | – |
| COc1cc(CCNc2ncnc3c(F)ccc(F)c23)ccc1Oc1cc(C(F)(F)F)ccn1 [I-18, (5,8-Difluoro-quinazolin-4-yl)-{2-[4-(4-trifluoromethyl-pyridin-2-yloxy)-3-methoxy-phenyl]-ethyl}-amine] | – | 57 | 4 | – |
| COc1cc(CCNc2ncnc3c(F)cc(F)c(F)c23)ccc1Oc1cc(C(F)(F)F)ccn1 [I-19, (5,6,8-Trifluoro-quinazolin-4-yl)-{2-[4-(4-trifluoromethyl-pyridin-2-yloxy)-3-methoxy-phenyl]-ethyl}-amine] | 12 | – | – | – |
